Laboratory results: patent US20100184664A1, “OPHTHALMIC COMPOSITIONS USEFUL FOR IMPROVING VISUAL ACUITY” (Allergan, Inc., priority 2008, published 2010)

Columns and labels:
[1] = test system: corneal epithelial cells isolated from the rabbit eye; assay: Trans-epithelial electrical resistance (TEER) of layered air-lift corneal epithelial cultures under hypertonic fluid; type: cell-based; conditions: for TEER (as % of isotonic control) at 22 hours: 2 mM solute in hypertonic fluid (400 mOsmols/kg), 22 hours exposure, isotonic control 100%, hypertonic control 23.3; for osmoprotective benefit (TEER relative to the hypertonic control), in words: Example 1, 2 mM, 400 mOsmols/kg, 22 hours; for % TEER relative to the isotonic control, response to concentration: Example 4, different concentrations, TEER measured from 0 to 24 hours, FIG. 6
Excerpt: In this experiment, corneal epithelial cells were isolated from the rabbit eye and grown under conditions so that they differentiate into a layered “air-lift” culture that includes basal, wing, and squamous cells. As they grow and differentiate, these cultures developed tight junctions between cells that provide the basis for a trans-epithelial electrical resistance (TEER) across the cell layers between the apical and basal surfaces. The TEER value is a sensitive measure of cell growth, differentiation and health.
After 5 days in culture during which the layered structure forms, different culture wells were exposed to hypertonic fluid (400 mOsmols/kg) with or without addition of one of 6 candidate compatible solutes at a low concentration (2 mM). The TEER was then measured after 22 hours of exposure. The TEER value was expressed as a percentage of the TEER value obtained from a similar culture under isotonic (300 mOsmol/kg) conditions.
Example 1 is repeated except that different concentrations of each of the candidate materials are used, and the TEER is measured at various times from 0 to 24 hours.
As in Example 1, the TEER variable is represented as % TEER relative to the isotonic control. […]

[2] = test system: phosphorylated c-jun N-terminal kinases (p-JNK1 and p-JNK2); assay: Western blot analysis of phosphorylated JNK1 and JNK2 in primary corneal epithelial cultures under hyperosmolar media; type: cell-based, human; conditions: 2 mM; for JNK activation (levels of JNK1 and JNK2, Western blot intensity) compared to 400 mOsmols/kg media alone: pre-added 60 minutes, 1 hour, FIGS. 1 and 2; for levels of JNK1 and JNK2 in 300 mOsmols/kg cultures: FIG. 2
Description: (§1) Human corneoscleral tissues, from donors aged 16-59 years were obtained from the Lions Eye Bank of Texas (Houston, Tex.). Corneal epithelial cells were grown from limbal explants. In brief, after carefully removing the central cornea, excess conjunctiva and iris and corneal endothelium, the limbal rim was cut into 12 equal pieces (about 2×2 mm size each). Two of these pieces were placed epithelial side up into each well of 6-well culture plates, and each explant was covered with a drop of fetal bovine serum (FBS) overnight. The explants were then cultured in SHEM medium, which was an 1:1 mixture of Dulbecco modified Eagle medium (DMEM) and Ham F-12 medium containing 5 ng/mL EGF, 5 μg/mL insulin, 5 μg/mL transferrin, 5 ng/mL sodium selenite, 0.5 μg/mL hydrocortisone, 30 ng/mL cholera toxin A, 0.5% DMSO, 50 μg/mL gentamicin, 1.25 μg/mL amphotericin B and 5% FBS, at 37° C. under 5% CO2 and 95% humidity. The medium was renewed every 2-3 days. Epithelial phenotype of these cultures was confirmed by characteristic morphology and immuno-fluorescent staining with cytokeratin antibodies (AE-1/AE-3).
(§2) A series of primary sub-confluent corneal epithelial cultures (grown for 12 to 14 days, about 4-5×10^5 cells/well) were washed three times with […] buffered saline (PBS) and switched to an Earle's Balanced Salt Solution (EBSS, 300 mOsmols/kg) for 24 hours before treatment. The corneal epithelial cells were cultured for 1 hour in an equal volume (2.0 mL/well) of EBSS media or 400 mOsmols/kg media by adding 53 mM NaCl or sucrose, with either L-carnitine inner salt, betaine hydrochloride, erythritol, or xylitol (all at a concentration of 2 mM) that were pre-added 60 minutes before adding NaCl or sucrose. Samples without these osmoprotectants were also prepared and tested.
(§3) The adherent cells were lysed in Beadlyte® Buffer B (included in the Beadlyte® Cell Signaling buffer kit, Upstate Biotechnology, Lake Placid, N.Y.) containing an EDTA-free protease inhibitor cocktail tablet (Roche Applied Science, Indianapolis, Ind.) for 15 minutes. The cell extracts were centrifuged at 12,000×g for 15 minutes at room temperature and the supernatants were stored at −80° C. until they were analyzed by Western blot analysis. The total protein concentrations of the cell extracts were determined using a Micro BCA protein assay kit (Pierce, Rockford, Ill.).
The intensity of each of JNK1 and JNK2 was tested for each of these compositions using Western blot analysis with specific antibodies to each phosphorylated species.
The Western blot analysis was conducted as follows. The protein samples (50 μg per lane) were mixed with 6×SDS reducing sample buffer and boiled for 5 minutes before loading. Proteins were separated by SDS polyacrylamide gel electrophoresis (4-15% Tris-HCl, gradient gels from Bio-Rad, Hercules, Calif.), and transferred electronically to polyvinylidine difluoride (PVDF) membranes (Millipore, Bedford, Mass.). The membranes were blocked with 5% non-fat milk in TTBS (50 mM Tris, pH 7.5, 0.9% NaCl, and 0.1% Tween-20) for 1 hour at room temperature (RT), and then incubated 2 hours at RT with a 1:1000 dilution of rabbit antibody against phospho-p38 MAPK (Cell Signaling, Beverly, Mass.), 1:100 dilution of rabbit antibody against phospho-JNK, or 1:500 dilution of monoclonal antibody against phospho-p44/42 ERK (Santa Cruz Biotechnology, Santa Cruz, Calif.).
After three washings with TTBS, the membranes were incubated for 1 hour at RT with horseradish peroxidase-conjugated secondary antibody goat anti-rabbit IgG (1:2000 dilution, Cell Signaling, Beverly, Mass.), or goat anti-mouse IgG (1:5000 dilution, Pierce, Rockford, Ill.). After washing the membranes four times, the signals were detected with an ECL advance chemiluminescence reagent (Amersham, Piscataway, N.J.) and the images were acquired by a Kodak image station 2000R (Eastman Kodak, New Haven, Conn.). […]

phospho-JNK / total JNK = assay: Beadlyte Cell Signaling Assay, phosphorylated:total JNK; type: cell-based, human; conditions: Beadlyte method, FIG. 3
Description: as §1, §2
as §3, with “Ill.). […]” for “Ill.).”
(§4) The beads were washed and mixed with biotinylated specific reporter antibodies for phospho-MAPK or total-MAPK, followed by streptavidin-phycoerythrin. The amount of total or phospho-MAPK was then quantified by the Luminex 100™ system (Luminex, Austin, Tex.). Fifty events per bead were read, and the data output obtained from the Bio-Plex Manager software were exported to Microsoft Excel® for further analysis. […]

ERK MAP Kinase = assay: Beadlyte Cell Signaling Assay, phospho:total ERK MAP Kinase; type: cell-based, human; conditions: Beadlyte method, FIG. 5
Description: as §1, §2
as §3, with “Ill.). […]” for “Ill.).”
as §4

p38 MAP Kinase = assay: Beadlyte Cell Signaling Assay, phospho:total p38 MAP Kinase; type: cell-based, human; conditions: Beadlyte method, FIG. 4
Description: Human corneoscleral tissues, from donors aged 16-59 years were obtained from the Lions Eye Bank of Texas (Houston, Tex.). Corneal epithelial cells were grown from limbal explants. In brief, after carefully removing the central cornea, excess conjunctiva and iris and corneal endothelium, the limbal rim was cut into 12 equal pieces (about 2×2 mm size each). Two of these pieces were placed epithelial side up into each well of 6-well culture plates, and each explant was covered with a drop of fetal bovine serum (FBS) overnight. […]
as §3, with “Ill.). […]” for “Ill.).”
The beads were washed and mixed with biotinylated specific reporter antibodies for phospho-MAPK or total-MAPK, followed by streptavidin-phycoerythrin. The amount of total or phospho-MAPK was then quantified by the Luminex 100™ system (Luminex, Austin, Tex.). […]

[3] = Component compatibility with stabilized chlorine dioxide preservative; type: physicochemical; conditions: composition including betaine and stabilized chlorine dioxide
Description: A composition including betaine and stabilized chlorine dioxide, as a preservative, was tested for component compatibility. […] Thus, betaine is not useful with is certain preservatives, such as stabilized chlorine dioxide. However, betaine may advantageously be employed as a compatible solute in ophthalmic compositions which use other preservative systems, or which are free of preservatives, for example, in single or unit-dose applications.

OC[C@@H](O)[C@H](O)[C@@H](O)CO [Xylitol]
TEER (as % of isotonic control) at 22 hours [1]: 94.1%
osmoprotective benefit (TEER relative to the hypertonic control), in words [1]: good results
JNK activation (levels of JNK1 and JNK2, Western blot intensity) compared to 400 mOsmols/kg media alone [2]: no effect
amount of phospho-total JNK relative to the hypertonic control (phospho-JNK / total JNK): reduced
amount of ERK relative to the hypertonic control (ERK MAP Kinase): reduced

C[N+](C)(C)C[C@H](O)CC(=O)[O-] [Carnitine]
TEER (as % of isotonic control) at 22 hours [1]: 118.9%
osmoprotective benefit (TEER relative to the hypertonic control), in words [1]: most benefit
% TEER relative to the isotonic control, response to concentration [1]: dose-related response
levels of JNK1 and JNK2 in 300 mOsmols/kg cultures [2]: less robust effect
JNK activation (levels of JNK1 and JNK2, Western blot intensity) compared to 400 mOsmols/kg media alone [2]: definite decrease
amount of phospho-total JNK relative to the hypertonic control (phospho-JNK / total JNK): reduced
amount of ERK relative to the hypertonic control (ERK MAP Kinase): did not

NCCS(=O)(=O)O [Taurine]
TEER (as % of isotonic control) at 22 hours [1]: 39.8%

OC[C@@H](O)[C@@H](O)CO [Erythritol]
TEER (as % of isotonic control) at 22 hours [1]: 107.4%
osmoprotective benefit (TEER relative to the hypertonic control), in words [1]: best results among the polyols tested
% TEER relative to the isotonic control, response to concentration [1]: dose-related response
JNK activation (levels of JNK1 and JNK2, Western blot intensity) compared to 400 mOsmols/kg media alone [2]: no effect
amount of phospho-total JNK relative to the hypertonic control (phospho-JNK / total JNK): reduced
amount of ERK relative to the hypertonic control (ERK MAP Kinase): reduced

O[C@H]1[C@H](O)[C@@H](O)[C@H](O)[C@@H](O)[C@H]1O [Myo-Inositol]
TEER (as % of isotonic control) at 22 hours [1]: 74.8%
osmoprotective benefit (TEER relative to the hypertonic control), in words [1]: good results

C[N+](C)(C)CC(=O)O [Betaine, betaine (trimethyl glycine)]
TEER (as % of isotonic control) at 22 hours [1]: 53.3%
% TEER relative to the isotonic control, response to concentration [1]: dose-related response
levels of JNK1 and JNK2 in 300 mOsmols/kg cultures [2]: less robust effect
JNK activation (levels of JNK1 and JNK2, Western blot intensity) compared to 400 mOsmols/kg media alone [2]: definite decrease
amount of phospho-total JNK relative to the hypertonic control (phospho-JNK / total JNK): reduced
amount of phospho-total p38 relative to the hypertonic control (p38 MAP Kinase): exception
amount of ERK relative to the hypertonic control (ERK MAP Kinase): did not
component compatibility with stabilized chlorine dioxide (Purite7) preservative [3]: not fully compatible
